Experiments:
[1] = molecular target: T1, human serotonin 5-HT2A receptor (Homo sapiens, UniProt P28223); format: cell-based
T1 construct: host or cells: CHO-K1
Experimental: Tested and reference compounds were dissolved in dimethyl sulfoxide (DMSO) at a concentration of 10 mM. Serial dilutions were prepared in a 96-well microplate in assay buffer, and 8 to 10 concentrations were tested. […] The assay was executed according to the previously described protocol [45]. After thawing, cells were transferred to assay buffer (DMEM/HAM’s F12 with 0.1% protease-free BSA) and centrifuged. The cell pellet was resuspended in assay buffer, and coelenterazine h was added at final concentrations of 5 µM. The cell suspension was incubated at 16 °C (or 21 °C), protected from light with constant agitation for 16 h (or 4 h), and then diluted with assay buffer to the concentration of 100,000 cells/mL (or 250,000 cells/mL). After 1 h of incubation, 50 µL of the cell’s suspension was dispensed using automatic injectors built into the radiometric and luminescence plate counter MicroBeta2 LumiJET (PerkinElmer, Waltham, NA, USA) into white opaque 96-well microplates preloaded with test compounds. Immediate light emission generated following calcium mobilization was recorded for 30 s. In antagonist mode, after 25–30 min of incubation, the reference agonist was added to the above assay mix, and light emission was re-recorded. […] IC50 and EC50 values were calculated.

mice [2] = assay: MK-801-induced hyperlocomotion test in mice; format: in vivo; settings: doses 0.15–2.5 mg/kg ip, MK-801 0.2 mg/kg ip
Experimental: Locomotor activity was recorded in actometers separately for each mouse. After 30 min of adaptation, the number of crossings of photo beams was measured during 60 min. […] MK-801 (0.2 mg/kg, ip) was administered 15 min before the experiment, while amphetamine (2.5 mg/kg) was administered subcutaneously (sc) 30 min before the experiment. […] Values are expressed as means ± SD, n = 8–10 mice per group. Statistical analysis: one-way ANOVA (Newman–Keuls post hoc), * p < 0.05, ** p < 0.01, *** p < 0.001.
The test was performed according to the method described by Carlsson et al.. The mobility of the animals was measured in actometers, i.e., in plastic Opto M3 cages (22 × 12 × 13 cm) connected to a computer with MultiDevice Software v.1.30 (Columbus Instruments, Columbus, OH, USA). The experimental cages were equipped with infrared sources on one side and sensors receiving the emitted rays on the other side of the cage. The crossing of each beam of infrared rays was classified as motor activity. The animals were placed individually in experimental cages immediately after administration of the tested compound, 30 min before the start of the test, to adapt to the new conditions and exclude the occurrence of hyperactivity caused by the change of the environment. Spontaneous locomotor activity was measured every 5 min for 60 min. Mice received two injections: of the tested compound or reference substance (30 min before the test, ip) and of amphetamine (2.5 mg/kg, 30 min before the test, sc) or MK-801 (0.2 mg/kg, 15 min before the test, ip). Control groups received an injection of saline and amphetamine or MK-801, or two injections of saline, respectively. Olanzapine was used as a reference compound.

mice [3] = assay: Spontaneous locomotor activity in mice; format: in vivo
Experimental: The locomotor activity of mice was measured as previously described using the same apparatus as described in paragraph 4.5. Each mouse was placed individually in a cage for a 30 min habituation period (directly after administration of the studied compound), and then the number of photobeams crossings was recorded (ambulation). Locomotor activity was evaluated every 1 or 5 min for 1–60 min depending on the observation period in behavioral tests (60 min for the hyperlocomotion test, 30 min for the marble burying test, and 1 min for the four-plate test). The cages were disinfected with an odorless disinfection solution after each mouse.

rats = assay: Prepulse inhibition test after MK-801 in rats; format: in vivo; settings: 3.0–30 mg/kg ip, MK-801 0.6 mg/kg ip
Experimental: Figure 5 The influence of JJGW08 on startle response inhibition (Panel (A)) and changes in startle response (Panel (B)) in prepulse inhibition test after MK-801 administration in rats. The test was conducted in the soundproof apparatus, and the startle response amplitude was recorded. The experimental session (after a 5-min habituation period) had strictly defined parameters (prepuls-and-pulse trials: 84/120–prepuls 84 dB (20 ms), pulse 120 dB (40 ms); 90/120–prepuls 90 dB (20 ms), pulse 120 dB (40 ms), sham stimulus (70 dB, 40 ms)), and the startle intensity for each stimulus used in the session was measured. JJGW08 was administered ip 30 min before the test, while MK-801 (0.6 mg/kg) was administered ip 15 min before the start of the experiment. The control group received 0.9% NaCl solution (ip) and MK-801 (0.6 mg/kg, ip). Values are expressed as mean ± SD, n = 7–8 rats per group. […]
The study was conducted as described in detail by Acewicz and colleagues. […] Startle responses, reflecting the motion of animals in the cylinder following the acoustic stimulus, were detected by a piezoelectric transducer mounted below the frame. […] Sound levels in the chambers were measured and calibrated with a sound meter. […] Startle responses were measured for 100 ms after the onset of the last stimulus within each trial. […]

T1 sequence (P28223 whole entry): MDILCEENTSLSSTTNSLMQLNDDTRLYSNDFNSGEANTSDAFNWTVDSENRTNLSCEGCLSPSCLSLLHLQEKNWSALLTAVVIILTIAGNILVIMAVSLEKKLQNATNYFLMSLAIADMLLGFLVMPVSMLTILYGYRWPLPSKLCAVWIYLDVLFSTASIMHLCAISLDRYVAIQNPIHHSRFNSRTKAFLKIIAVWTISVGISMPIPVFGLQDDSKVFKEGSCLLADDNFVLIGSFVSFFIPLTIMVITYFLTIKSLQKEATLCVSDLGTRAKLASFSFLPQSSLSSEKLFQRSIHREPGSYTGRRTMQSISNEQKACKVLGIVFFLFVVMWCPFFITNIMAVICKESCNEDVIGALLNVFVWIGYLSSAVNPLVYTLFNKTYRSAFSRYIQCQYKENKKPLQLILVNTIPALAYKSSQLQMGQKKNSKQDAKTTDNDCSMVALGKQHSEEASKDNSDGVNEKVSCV

## COc1ccccc1N1CCN(CCCCCOc2ccccc2C(N)=O)CC1.Cl [JJGW08, 2-{5-[4-(2-metoksyfenylo)piperazin-1-ylo]pentoxy}benzamide hydrochloride]
[1]
  Agonist Mode Emax%: 21%
  Agonist Mode pEC50 ± Range: 5.9 ± 0.1
  Antagonist Mode Emax%: 5%
  Antagonist Mode pIC50 ± Range: 5.7 ± 0.4
  antagonistic properties (in words): very weak antagonistic properties
[1]; read-out: Antagonist Mode Kb
  Kb: 0.29 µM
Mice [2]
  reduction of MK-801-induced hyperactivity: 24–71%
Mice [3]; 0.15 mg/kg ip, 1 min session
  Number of Crossings: 38
Mice [3]; 0.15 mg/kg ip, 30 min session
  Number of Crossings: 547
Mice [3]; 0.15 mg/kg ip, 60 min session
  Number of Crossings: 1346
Mice [3]; 0.3 mg/kg ip, 1 min session
  Number of Crossings: 46
Mice [3]; 0.3 mg/kg ip, 30 min session
  Number of Crossings: 1027
Mice [3]; 0.3 mg/kg ip, 60 min session
  Number of Crossings: 1588
Mice [3]; 0.625 mg/kg ip, 1 min session
  Number of Crossings: 27
Mice [3]; 0.625 mg/kg ip, 30 min session
  Number of Crossings: 634
Mice [3]; 0.625 mg/kg ip, 60 min session
  Number of Crossings: 1671
Mice [3]; 1.25 mg/kg ip, 1 min session
  Number of Crossings: 22
Mice [3]; 1.25 mg/kg ip, 30 min session
  Number of Crossings: 1181
Mice [3]; 1.25 mg/kg ip, 60 min session
  Number of Crossings: 1769
Mice [3]; 2.5 mg/kg ip, 1 min session
  Number of Crossings: 19
Mice [3]; 2.5 mg/kg ip, 30 min session
  Number of Crossings: 437
Mice [3]; 2.5 mg/kg ip, 60 min session
  Number of Crossings: 1450
Mice [3]; 0.15–2.5 mg/kg ip, 60-min and 30-min sessions
  effect on locomotor activity (in words): did not affect locomotor activity
rats
  reversal of deficits in sensorimotor gating induced by MK-801 (in words): did not reverse the deficits
rats; prepulse 84 or 90 dB
  startle reaction inhibition (%PPI): −0.2 to 24.4%

Source: publication PMC9781916, “Antipsychotic- and Anxiolytic-like Properties of a Multimodal Compound JJGW08 in Rodents” (International Journal of Molecular Sciences, 2022)
